The values that follow come from paper PMC11050087, “Polyphenols from Maackia amurensis Heartwood Protect Neuronal Cells from Oxidative Stress and Prevent Herpetic Infection” (International Journal of Molecular Sciences, 2024).

In experiment [1] the test system is HSV-1. As to the kind of experiment: Virucidal activity, CPE inhibition assay (HSV-1 pretreated with compounds). Type of experiment: cell-based, HSV-1 strain L2. On the procedure:
The antiviral activity of polyphenols from M. amurensis against HSV-1 was assessed using the cytopathic effect inhibition (CPE) assay. To study the inhibitory effect of polyphenolic compounds directly on the HSV-1 virus (direct virucidal activity), the monolayer of Vero cells grown on 96-well plates (1 × 10^4 cells/well) was infected with the virus (100 TCD50/mL), pretreated with different concentrations of polyphenolic compounds.
(§1) The HSV-1 strain L2 obtained from N.F. Gamaleya Federal Research Centre for Epidemiology and Microbiology (Moscow, Russia) was grown in Vero cells as previously described.
(§2) We determined the direct inhibitory effect of polyphenolic compounds from M. amurensis heartwood on HSV-1 (virucidal effect). We mixed the virus at an infectious dose (100 TCID50/mL) with polyphenolic compounds (from 0.1 to 100 µg/mL) at a ratio of 1:1 (v/v) and incubated for an hour at 37 °C. Then, we infected the monolayer of Vero cells grown on 96-well plates (1 × 10^4 cells/well) with HSV-1 pretreated with the studied compounds. After 1 h adsorption at 37 °C, the cells were washed with phosphate-buffered saline (PBS) and overlaid by the maintenance medium with 1% FBS. The plates were incubated for 72 h at 37 °C in a CO2-incubator. The cytopathic effect (CPE) inhibition assay and real-time reverse transcription-PCR (RT-PCR) assay were used to evaluate virucidal effect of the tested compounds.
We previously described this method in detail in [22]. We performed the MTT assay to evaluate the antiviral activity of polyphenolic compounds. The viral inhibition rate (IR, %) was calculated according to Equation (1):(1) IR, %=Atv−Acv/Acd−Acv×100, where Atv is the absorbance of cells infected with HSV-1 pretreated with the studied compounds,
We calculated the selectivity index (SI) as the ratio of CC50 to IC50. Experiments were repeated three times.

Experiment [2] deals with 6-OHDA-treated Neuro-2a cells. As to the kind of experiment: 6-OHDA-induced neurotoxicity model, cell viability test (MTT). The note with it: compounds at 10, 1, 0.1 µM; 6-OHDA 100 µM. Format: cell-based, murine. On the procedure:
Neuro-2a cells were incubated with the studied polyphenolic compounds for 1 h. Then, 100 µM of 6-hydroxydopamine 6-OHDA were added. We determined the percentage of living Neuro-2a cells after treatment with 6-OHDA (Figure 4a–d).
Figure 4 The effect of polyphenolic compounds isolated from M. amurensis heartwood on the viability of Neuro-2a cells treated with 6-OHDA (100 μM) (a–d). The viability of Neuro-2a cells treated with various compounds and 6-OHDA was measured by the MTT assay. Polyphenolic compounds isolated from M. amurensis heartwood were used at concentrations 10, 1, 0.1 μM. The data are presented as means ± SEM of three independent replicates. (*) indicate p < 0.05 versus 6-OHDA-treated cells.
After 24 h of adhesion, Neuro-2a cells (5 × 10^4 cells/mL) were treated with polyphenolic compounds at concentrations of 0.1, 1 and 10 μM for 1 h. Then, 100 µM of 6-OHDA or 1 mM of PQ (Sigma-Aldrich, St. Louis, MO, USA) were added. Cells incubated without inductors or with inductors were used as positive and negative control, respectively. Cell viability was measured after 24 h using the MTT assay.

For experiment [3], the system named is 6-OHDA-treated Neuro-2a cells. As to the kind of experiment: Mitochondrial membrane potential detection (TMRM) in 6-OHDA-treated cells. The following applies: compound 10 µM, 6-OHDA 120 µM. Format: cell-based, murine. As to the method: We determined the effect of polyphenolic compounds from M. amurensis on 6-OHDA-induced mitochondrial dysfunction in Neuro-2a cells (Figure 6a,b).
Figure 6 The effect of polyphenolic compounds isolated from M. amurensis heartwood on mitochondrial membrane potential in Neuro-2a cells treated with 6-OHDA (120 μM) (a,b). Polyphenolic compounds isolated from M. amurensis heartwood were used at concentrations 10, 1, 0.1 μM. The data are presented as means ± SEM of three independent replicates. (*) and (***) indicate, respectively, p < 0.05 and p < 0.001 versus 6-OHDA-treated cells.
The cells were incubated for 1 h in a 96-well plate (1 × 10^4 cells/well) with polyphenolic compounds (0.1, 1 and 10 µM). Then, 6-OHDA (120 µM) was added, and cell suspension was incubated for 1 h. Cells incubated without 6-OHDA and compounds and with 6-OHDA alone were used as positive and negative control, respectively. The tetramethylrhodamine methyl (TMRM) (Sigma-Aldrich, St. Louis, MO, USA) solution (500 nM) was added to each well and cells were incubated for 30 min at 37 °C. The intensity of fluorescence was measured using a PHERAstar FSplate reader (BMG Labtech, Ortenberg, Germany) at λex = 540 nm and λem = 590 nm. The data were processed by MARS Data Analysis v. 3.01R2 (BMG Labtech, Ortenberg, Germany).

Experiment [4] deals with HSV-1. As to the kind of experiment: Virucidal activity, RT-PCR assay (HSV-1 pretreated with compounds). Type of experiment: cell-based, HSV-1 strain L2. The following applies: for Ct: 72 h; for −ΔCt: vs virus control. As to the method: Vero cells grown on 96-well plates were infected with the virus (100 TCID50/mL), pretreated with polyphenolic compounds at concentrations 0.1, 1 and 10 μg/mL. After 72 h of cell incubation, viral DNA was extracted from the supernatants, and the relative level of HSV-1 DNA was determined using RT-PCR. The effect of polyphenols on the relative level of viral DNA was assessed using the 2^−∆Ct method and reported as fold reduction compared to virus control.
as §1, §2
We performed the RT-PCR assay as we previously described in detail in [22]. Briefly, HSV-1 DNA was extracted after incubation from cell supernatants by using the DNA-sorb-AM (K1-12-100-CE) nucleic acid extraction kit (AmpliSens®, Moscow, Russia) according to the manufacturer′s instructions. We treated the supernatants with a lysis solution that contained guanidine chloride (chaotropic agent) in the presence of sorbent (silica particles). As the elution solution was added, the DNA was […] silica particles and separated from the sorbent particles by centrifugation.
We detected the DNA of HSV-1 in the obtained samples using the AmpliSens® HSV I, II-FRT-100F PCR kit (AmpliSens®, Moscow, Russia) on a real-time PCR instrument Rotor-Gene Q (Qiagen, Hilden, Nordrhein-Westfalen, Germany) according to the manufacturer′s instructions. The PCR reaction conditions were the following: initial denaturation at 95 °C for 15 min; then 5 cycles at 95 °C for 5 s, at 60 °C for 20 s, at 72 °C for 15 s; then 40 cycles at 95 °C for 5 s, at 60 °C for 20 s, and at 72 °C for 15 s. A negative sample was used as the amplification control for each run. The threshold cycle number Ct, was measured as the PCR cycle, where the amount of the amplified target reached the threshold value; the Ct values ≥ 37 indicated the absence of the HSV-1 DNA in the samples. We assessed the anti-HSV-1 activity of the studied compounds by the reduction in the viral DNA levels using the 2^−ΔCt method according to Equation (2):(2) ΔCt=Ctcv−Cttv where Ct is the threshold cycle number measured as the PCR cycle, where the amount of the amplified target reached the threshold value, […]

In experiment [5] the test system is HSV-1. As to the kind of experiment: Treatment of virus-infected cells with polyphenols, CPE inhibition assay. Type of experiment: cell-based, HSV-1 strain L2. As to the method: In order to study the mechanism of action of these compounds, two additional schemes of treatment of the virus and Vero cells with polyphenols were applied: the compounds were added before virus infection (pretreatment of cells) and after penetration of the virus into host cells (treatment of infected cells). The fourth method of exposure where the virus and polyphenols were added to cells simultaneously (simultaneous treatment) was previously described by us in [22]. The anti-HSV-1 activity of polyphenols was assessed using the cytopathic effect inhibition (CPE) assay.
The monolayer of cells was infected with the virus (100 TCID50/mL) at 37 °C for 1 h, and then the cells were washed with PBS (Sigma, Saint-Louis, MO, USA) and treated with different concentrations of the studied compounds and incubated until CPE appeared.

In experiment [6] the test system is HSV-1. Further details: method as in PMID 36985562. The following applies: ref [22], cited from earlier work.
Experiment [7] deals with 6-OHDA-treated Neuro-2a cells. The experiment is described as follows: ROS analysis in 6-OHDA-treated cells (H2DCF-DA). Type of experiment: cell-based, murine. The note with it: compound 0.1 µM. On the procedure:
We studied the effect of polyphenolic compounds set on ROS levels in 6-OHDA-treated Neuro-2a cells (Figure 5a–d).
Figure 5 The effect of polyphenolic compounds isolated from M. amurensis heartwood on ROS levels in Neuro-2a cells treated with 6-OHDA (120 μM) (a–d). Polyphenolic compounds isolated from M. amurensis heartwood were used at concentrations 10, 1, 0.1 μM. The data are presented as means ± SEM of three independent replicates.
After 24 h of adhesion, Neuro-2a cells (5 × 10^4 cells/mL) were incubated with polyphenolic compounds at concentrations of 0.1, 1, and 10 µM for 1 h. Then, 120 µM of 6-OHDA or 1 mM of PQ were added to each well, and cells were incubated for 1 h. To study the ROS formation, 20 µL of 2,7-dichlorodihydrofluorescein diacetate solution (H2DCF-DA, Sigma-Aldrich, St. Louis, MO, USA) were added to each well, so that the final concentration was 10 µM. Then, the microplate was incubated for 30 min at 37 °C.

Experiment [8] deals with 6-OHDA-treated Neuro-2a cells. As to the kind of experiment: Apoptosis profile by flow cytometry (Annexin V & Dead Cell Kit). Format: cell-based, murine. The note with it: Table 1; polyphenols 10 µM, 6-OHDA 100 µM, 24 h; mean. As to the method:
We investigated the effect of polyphenolic compounds from M. amurensis on apoptosis profile in 6-OHDA-treated Neuro-2a cells by flow cytometry using fluorescent annexin V conjugate as a fluorescent dye. We observed significant changes in apoptosis profile in Neuro-2a cells after 6-OHDA-treatment. […] Polyphenols 3, 6 and 13 diminished the neurotoxic effect of 6-OHDA-treatment.
The cells were incubated for 1 h in a 6-well plate (5 × 10^4 cells/mL) with polyphenolic compounds (10 µM). Then, 6-OHDA (100 µM) was added, and cell suspension was incubated for 24 h. After incubation, the maintenance media was collected, and the cells were washed by cold PBS twice and incubated with trypsin-EDTA solution. The cell suspension was washed with cold PBS twice again, centrifugated and then used for apoptosis detection by Muse® Annexin V & Dead Cell Kit in accordance with the manufacturer’s instructions (Luminex, Austin, TX, USA). The fluorescence was measured with Muse® Cell Analyzer (Luminex, Austin, TX, USA) and the data were processed by Muse 1.5 Analysis software (Luminex, Austin, TX, USA).

Setting [9] is: Human alphaherpesvirus 1, 72 h, read-out: 2^−ΔCt.
Setting [10] is: Human alphaherpesvirus 1, 72 h, read-out: log10.

Values joined by “and” are separate entries in the source; they are usually repeats but may differ in a detail not shown here. Equal entries are not always repeated. Where two headings read alike, the source gives them in different places.

As to `Oc1cc(O)cc(/C=C/c2ccc(O)c(O)c2)c1` [Compound 11, piceatannol], the IC50 with HSV-1 [1] (Human alphaherpesvirus 1, virus pretreated with compound (virucidal), CPE assay, Vero cells, 100 TCID50/mL) is 6.7 µg/mL and 27.4 µM. Also, in the experiment on HSV-1 [1] (ratio of CC50 to IC50, virucidal scheme), the SI was 37.3 ± 5.2. The “effect on viability of 6-OHDA-treated Neuro-2a cells (in words)” value in experiment [2] is “weak effect on cell viability”. Moreover, in experiment [3] (TMRM), the “increase of mitochondrial membrane potential” value is on record as 8–12%. In addition, in the experiment with HSV-1 [4] (0.1 µg/mL), the Ct is given as 18.4 ± 2.4 and the “−ΔCt” value is listed as −0.30 ± 0.03. In the experiment with HSV-1 [4] (1 µg/mL), the “inhibition of HSV-1 replication by RT-PCR (in words)” value is “inhibited the replication of HSV-1”, the Ct came to 24.5 ± 3.4 and the “−ΔCt” value is −6.4 ± 0.8. Moreover, in the experiment with HSV-1 [4] (10 µg/mL), the “anti-HSV-1 activity by RT-PCR (in words)” value is “significantly reduced the level of viral DNA”, the Ct amounted to 30.2 ± 3.9 and the “−ΔCt” value is listed as −12.1 ± 1.4. In the experiment on HSV-1 [4] (setting [9]), the activity at 0.1 µg/mL is 81.2 ± 11%, the activity at 1 µg/mL turned out to be 1.18 ± 0.15% and the activity at 10 µg/mL turned out to be 0.0228 ± 0.03%. In the experiment on HSV-1 [4] (setting [10]), the log reduction at 0.1 µg/mL amounted to 0.09 ± 0.01, the log reduction at 1 µg/mL was 1.9 ± 0.2 and the log reduction at 10 µg/mL was determined as 3.6 ± 0.5.

With `Nc1nc2c(ncn2COCCO)c(=O)[nH]1` [Acyclovir, reference compound], the IC50 is 0.4 µg/mL and 1.8 µM with HSV-1 [5] (Human alphaherpesvirus 1, compound added after virus adsorption and penetration, CPE assay); 9.3 ± 1.3 µM with HSV-1 [6] (virus and compound added to cells simultaneously, CPE assay, read-out: Simultaneous Treatment IC50). For the same compound, the “Treatment of Infected Cells SI” value in the experiment on HSV-1 [5] (ratio of CC50 to IC50) is over 2500. In addition, in the experiment with HSV-1 [6] (ratio of CC50 to IC50), the “Simultaneous Treatment SI” value is given as 430. For the same compound, the “Simultaneous Treatment IC50” value in the experiment with HSV-1 [6] (virus and compound added to cells simultaneously, CPE assay) was 2.1 ± 0.3 µg/mL.

As for retusin [Compound 3], in the experiment on HSV-1 [1] (CPE assay, virus pretreated with compound), the “virucidal activity against HSV-1 (in words)” value is “did not show virucidal activity”. In addition, in experiment [7], the “inhibition of ROS formation in 6-OHDA-treated Neuro-2a cells (in words)” value was “considerably inhibited ROS formation”. Besides, the “effect on mitochondrial membrane potential (in words)” value in experiment [3] is “weak activity”. For the same compound, the “virucidal activity against HSV-1 by RT-PCR (in words)” value in the experiment on HSV-1 [4] (0.1, 1 and 10 µg/mL) was “did not demonstrate virucidal activity”. Further, in experiment [8], the Dead stood at 1.18 ± 0.24%, the Early apop. is 19.63 ± 0.79 %, the “Late apop./Dead” value came out at 11.31 ± 0.49% and the Live was 67.89 ± 1.52 %.
